# Experimental data reported in PMC12598616, “Design and optimization of caspase-1-responsive fluorescent probes for pyroptosis imaging and anti-pyroptosis drug screening” (Chemical Science, 2025).
# Tested on: Cas-1 in primary NP cells
# Test: Intracellular imaging in nucleus pulposus cells
# Format: cell-based, rat
# Conditions: H2O2 2 mM 30, 60, 90 min; FPy1 5 μM 1 h
# Description: With advancing age, the prevalence of degenerative bone and joint disorders (DBJDs), such as intervertebral disc degeneration (IVDD) and osteoarthritis (OA), increases markedly among middle-aged and elderly individuals.[30] Chronic inflammation has been identified as the underlying cause of DBJDs. In particular, inflammasome-mediated pyroptosis has been recognized as a primary contributor to sustained inflammatory responses.[31] Consequently, pyroptosis-associated biomarkers represent promising indicators for the diagnosis and monitoring of DBJDs. IVDD, a chronic degenerative condition closely related to natural aging, has become one of the leading causes of disability worldwide.[32] […] The imaging results indicated a positive correlation between fluorescence intensity and H2O2-stimulation time (Fig. 4b). […] Encouraged by the promising imaging results of FPy1 in NP cells and cell spheroids, we further assessed its capability for imaging pytoptosis in vivo. […] Following intradiscal injection of FPy1, the fluorescence images of the tail modeling site were obtained from the dorsal aspect. […] Histological scoring result corroborated these findings, reflecting the same trends as with fluorescence imaging observed using FPy1 (Fig. S13b). […]
# The cytotoxicity of FPy1 and YPy1 to THP-1 was evaluated by cell counting kit-8 (CCK-8). […]
substance,measurement,value
"–FLTDG– [FPy1, RhoB donor, hNR quencher]",intracellular fluorescence intensity in NP cells,increased with the duration of H2O2 stimulation
